Patent US9271953B2, “Methods for correction of organ dysfunction” (priority 2013, dated 2016)
Entries after “also recorded” stand apart in the source; their conditions may differ.

Columns and labels:
[1] = tested on: patients with connective tissue disorders and/or autonomic dysfunction; test: Patient studies / case studies with the oral compound; type: in vivo, human; conditions: patients with organ malfunction secondary to poor vagus nerve function
Description: The composition and method of use of the present invention is also unique because it corrects for these numerous causes of dysfunction and includes ingredients in the quantities and form required to work around the genetic, vascular, and/or co-morbid components involved. IBS/gastroparesis/constipation was initially targeted. In patient studies, a response to medication (a bowel movement) occurred within 2-12 hours, without exception. Patients were identified with a mix of co-morbid conditions including chronic fatigue syndrome, fibromyalgia, joint hypermobility and autonomic dysfunction.
The present composition was provided to a number of patients having certain diagnosed diseases, as summarized in Table 1 above and suffering from a variety of medical conditions or symptoms associated with those diseases, again, as summarized above.

[2] = tested on: post-ganglionic nicotinic acetylcholine receptors; test: Oral single agents in patients with damaged pre-ganglionic vagus nerve: organ function; type: in vivo, human
Description: In one embodiment of the invention, transdermal (topical) application of nicotine, applied near the lower right-hand corner of the abdomen stimulates the post-ganglionic nicotinic acetylcholinergic receptor controlling the ileocecal valve, for example, allowing the valve to open. Oral nicotine, however, is ineffective at stimulating the post-ganglionic nicotinic acetylcholinergic nerves in the abdomen, yet it exposes the patient to the direct (and negative) effect on the cerebellum.^38 In numerous patients tested, oral physostigmine or Huperzine A (both inhibitors of acetylcholinesterase, and thus indirect stimulators of both nicotinic and muscarinic acetylcholine receptors) were not effective in stimulating organ function when the pre-ganglionic portion of the vagus nerve was damaged. It is clear that in addition to inhibitors of acetylcholinesterase, other ingredients are necessary to stimulate organ function in this patient population. […] It was only through extensive testing that the inventor was able to discover the proper range of oral ingredients which were effective in stimulating these post-ganglionic nerves.

[3] = in vivo; cited from earlier work
[4] = tested on: post-ganglionic nicotinic acetylcholine receptors
Description: Nicotine is a powerful nicotinic agonist found in the leaves of the tobacco plant (Nicotiana tabacum).

IGF-1 = IGF-1 levels in Patient 1; type: in vivo, human; conditions: 2 units/day growth hormone, before compound
Description: Not intending to be bound by theory, and in no way a limitation of the present invention, the invention (excluding nicotine) can be used to stimulate production of human growth hormone, often found to be low in chronic pain syndromes, including disorders of connective tissue, “POTS”, “Hyperadrenergic POTS” and fibromyalgia. Rather than treating the patients with exogenous growth hormone, the present invention instead treats the source of the low growth hormone levels (as measured via IGF-1). Growth hormone levels can then return to normal and dysregulation of the hypothalamic-pituitary-adrenal axis is normalized. […]
Patient 1: Diagnoses: joint hypermobility (judged by the Beighton Scale), autonomic dysfunction (patient failed the Tilt Table Test of autonomic function) and visual and auditory hallucinations, hypothermia. […] Their liver enzymes and kidney function began to show abnormal readings, and pain at the site of the ileocecal valve began to occur. […]

CC(=O)O[C@H](CC(=O)[O-])C[N+](C)(C)C [Acetyl-L-Carnitine]
organ function when Acetyl-L-Carnitine was added to the compound [1]: invariably achieved better organ function

C/C=C1\[C@H]2C=C(C)C[C@]1(N)c1ccc(=O)[nH]c1C2 [Huperzine A]
response to medication ([2]; Patient 2, prescribed for mental fatigue): no response
stimulating organ function when the pre-ganglionic portion of the vagus nerve was damaged ([2]; oral, numerous patients tested): not effective

CN1CCCC1c1cccnc1 (centres unmarked) [nicotine, Nicotine]
opening the ileocecal valve, arresting gastroparesis/chronic constipation ([2]; oral doses of nicotine): ineffective
stimulating the post-ganglionic nicotinic acetylcholinergic nerves/receptors (organ function) ([2]; oral nicotine): ineffective; also recorded: not effective
lethal dosage [3]: 60 mg
skin side effects ([4]; Patient 1, 7 g transdermal nicotine): intractable itching, redness, and skin welting
ileocecal valve opening ([4]; Patient 1, 7 g transdermal nicotine near the ileocecal valve): opened the valve overnight
reversal of chronic constipation, gastroparesis, dysmotility, ileocecal valve and Sphincter of Oddi dysfunction: time ([4]; transdermal 3-21 mg, lower right-hand quadrant of abdomen): usually within hours
opening of the ileocecal valve ([4]; transdermal 3-21 mg, patients with poor vagus nerve function, valve not physically damaged): never failed to open the ileocecal valve

growth hormone: exogenous growth hormone, 2 units/day
IGF-1 levels raised to the upper normal range (IGF-1): which it did
